Assay results published in patent US20130130928A1, “METHODS FOR PREDICTING OR MONITORING WHETHER A PATIENT AFFECTED BY A CANCER IS RESPONSIVE TO A TREATMENT WITH A MOLECULE OF THE TAXOID FAMILY” (INSTITUT GUSTAVE ROUSSY, priority 2010, published 2013).

Key:
[1] = test system: IGR-CaP1 cells; assay: Generation of acquired resistance to docetaxel in vitro (dose-escalation selection of clones); type: cell-based, human; conditions: selection with docetaxel, before proliferation was regained
Text: The prostate cancer cell line IGR-CaP1 is described in CNCM deposit number I-4126 on Feb. 10, 2009.
(§1) The human androgen-independent IGR-CaP1 cell line recently obtained for a localized prostate cancer was maintained in RPMI medium complemented with 10% FBS and antibiotics.
Prostate cancer IGR-CaP1 cells were used to generate successive docetaxel-resistant cell lines. […] Cell cycle analysis was done to show acquired resistance to drug.

[2] = test system: prostate cancer; conditions: cited from earlier work
[3] = test system: IGR-CaP1 docetaxel-resistant cell lines (IGR-CaP1-R); assay: Genome-wide microarray gene expression analysis of docetaxel-resistant vs parental IGR-CaP1 cells, first analysis (Tables 1-4, FC exp1); type: cell-based, human
Description: as §1
Quality of RNA preparation, based on the RNA Integrity Number (RIN), was assessed using the Agilent RNA 6000 Nano Kit as developed on the Agilent 2100 Bioanalyzer device (Agilent Technologies, Palo Alto, Calif.). […] RNA samples were frozen in nuclease-free water (Qiagen).
Parental and resistant-cell line total RNAs were directly compared by using Agilent oligonucleotide dual-color technology, running dye-swap and duplicate experiments. Total RNA from the parental IGR-CaP1 cell line without treatment was used as the RNA reference. […] Probe synthesis and labeling were performed by Agilent's Low Fluorescent Low input Linear Amplification Kit. Hybridization was performed on the Agilent 4×44K Human 1A (G4112F) long (60-bp) oligonucleotide microarrays (Agilent Technologies) by using reagents and protocols provided by the manufacturer. Feature extraction software provided by Agilent (Version A.9.5.3.1) was used to quantify the intensity of fluorescent images and to normalize results using the linear and lowess subtraction method.
The methodology described below is based on a dose-dependent gene expression changes:
Under the hypothesis of a clone enrichment, and/or a biological effect due to drug increasing, monotonically increasing or decreasing expression profiles were identified by using a 5-parameters logistic regression model:
where yg is the log.ratio of treatment vs. reference for the gene g, x is the drug-dose in Log10[nM], and B, T, xc, p are, respectively, the estimated minimal value, the estimated maximal value, the slope at the inflexion point, and the asymmetric parameter. For each probe, parameters were first initialized with the observed values, and then optimized by an iterative method of gradient (the Newton-Raphson method). The aim of this iterative algorithm is to minimize the weighted quadratic sum of residuals:
The performance of the fitting was measured, for each probe, by a robust linear regression (RLR) of the fitted values against the observed values. Probes potentially associated with the drug increasing were selected on the 2 following criterion:
RLRp-value ≦1e-5, and |fold change|≧2 between the first and the last dose (resp: 5 and 200 nM), considering the fold change estimated by the 5-parameters logistic regression model. Calculations and graphic visualizations were performed in R (free software version 2.6.2), by using the package “MASS” (version 7.2-40), and supplemental scripts, in R language, written in the lab (F. Commo).
Untreated IGR-CaP1 parental cell lines were used as baseline. Such genes were those for which expression changes (at least one probe in case of multiple probe sets per gene) appeared as drug-dependent, in the sense of criterion described above.

[4] = test system: docetaxel resistant cells (PC3 and DU145); conditions: cited from earlier work
[5] = IGR-CaP1-R 100 nM docetaxel clone vs parental IGR-CaP1

Structure (SMILES)	cell death on addition of docetaxel [1]	patients developing resistance to the chemotherapy ([2]; from the beginning or in a secondary way)	toxicity ([2]; patients)	survival ([2]; prostate cancer patients, TAX 327 and SWOG 99-16)	ZFP62 gene expression 5 nM ([3]; IGR-CaP1-R 5 nM docetaxel clone vs parental IGR-CaP1)	ZFP62 gene expression 12 nM ([3]; IGR-CaP1-R 12 nM docetaxel clone vs parental IGR-CaP1)	ZFP62 gene expression 25 nM ([3]; IGR-CaP1-R 25 nM docetaxel clone vs parental IGR-CaP1)	ZFP62 gene expression 50 nM ([3]; IGR-CaP1-R 50 nM docetaxel clone vs parental IGR-CaP1)	LRRC44 gene expression 100 nM [3, 5]	ZFP62 gene expression 100 nM [3, 5]	ZFP62 gene expression 200 nM ([3]; IGR-CaP1-R 200 nM docetaxel clone vs parental IGR-CaP1)	apoptosis [4]	clusterin expression [4]
CC(=O)O[C@@]12CO[C@@H]1C[C@H](O)[C@@]1(C)C(=O)[C@H](O)C3=C(C)[C@@H](OC(=O)[C@H](O)[C@@H](NC(=O)OC(C)(C)C)c4ccccc4)C[C@@](O)([C@@H](OC(=O)c4ccccc4)[C@H]21)C3(C)C [docetaxel]	a large majority of cells initially underwent cell death	almost half	great toxicity	increase in survival	0.190	0.246	0.278	0.402	0.139	0.482	0.503	–	–
Oc1ccc(C=Cc2cc(O)cc(O)c2)cc1 [resveratrol]	–	–	–	–	–	–	–	–	–	–	–	increase of apoptosis	decreased expression of clusterin
